From US20170268001A1, “RNAS WITH TUMOR RADIO/CHEMO-SENSITIZING AND IMMUNOMODULATORY PROPERTIES AND METHODS OF THEIR PREPARATION AND APPLICATION” (THE UNIVERSITY OF CHICAGO, priority 2016, published 2017)

Molecular target: T1, RIG-I (Homo sapiens, UniProt O95786, K858A/K861A)
T1 construct: HEK293 cells overexpressing either the full length RIG-I; host or cells: HEK293; HCT116 also for the qRT-PCR validation
T1 sequence (O95786 1-925 K858A/K861A): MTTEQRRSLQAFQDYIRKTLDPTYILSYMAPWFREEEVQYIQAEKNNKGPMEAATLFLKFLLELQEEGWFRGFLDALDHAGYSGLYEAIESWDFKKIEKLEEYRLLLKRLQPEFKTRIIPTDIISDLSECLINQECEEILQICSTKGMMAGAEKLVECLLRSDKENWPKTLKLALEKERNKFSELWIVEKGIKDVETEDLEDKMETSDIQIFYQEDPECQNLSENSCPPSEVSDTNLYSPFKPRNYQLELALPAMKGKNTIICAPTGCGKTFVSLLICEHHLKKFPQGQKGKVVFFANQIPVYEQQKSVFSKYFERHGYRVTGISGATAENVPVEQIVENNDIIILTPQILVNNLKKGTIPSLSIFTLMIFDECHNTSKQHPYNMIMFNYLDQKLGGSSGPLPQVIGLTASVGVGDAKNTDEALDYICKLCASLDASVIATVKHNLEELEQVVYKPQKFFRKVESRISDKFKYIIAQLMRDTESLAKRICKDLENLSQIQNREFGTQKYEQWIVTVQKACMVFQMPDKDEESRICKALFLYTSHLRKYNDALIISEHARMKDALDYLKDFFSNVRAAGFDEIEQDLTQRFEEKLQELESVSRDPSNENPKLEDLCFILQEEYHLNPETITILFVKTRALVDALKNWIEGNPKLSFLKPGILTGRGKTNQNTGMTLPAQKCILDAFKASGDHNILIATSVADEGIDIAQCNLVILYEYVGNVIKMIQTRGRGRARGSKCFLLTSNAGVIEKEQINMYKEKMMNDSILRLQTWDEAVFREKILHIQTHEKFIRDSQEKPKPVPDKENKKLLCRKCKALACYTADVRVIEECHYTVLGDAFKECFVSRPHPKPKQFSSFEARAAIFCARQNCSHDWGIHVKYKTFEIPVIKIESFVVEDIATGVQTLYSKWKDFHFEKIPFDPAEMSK
Assay: UV cross-linking with quantitative real-time PCR (CLIP-PCR) of RIG-I complexes
Format: binding
Experimental: Graphic representation indicating the distribution of non-coding and repetitive RNA molecules bound to RIG-I following exposure to IR as compared to total irradiated cellular RNA. Transcripts were mapped to reference genomes using RepeatMasker. See Methods for further details. […] Cells were UV crosslinked at 150 mJ/cm^2 48 hours post-IR treatment prior to cell lysis. […] FIG. 29H show IFN-b levels in culture supernatant from ICR RIG-I^+/+ and primary MEFs 24 hours post-stimulation with the same set of synthetic U1 oligonucleotides used in (FIG. 29G) The amount of U1 synthetic oligonucleotides used in all stimulation experiments was 1 μg. P values were determined using unpaired Student's t-test. Error bars are SEM. ***P<0.005.
Technically, identification of RNAs was performed as follows: HEK293 cells were transiently transfected with 3×FLAG-tagged full-size RIG-I in pEF-BOS vector (Addgene; Cambridge, Mass.). Twenty-four hours post-transfection, cells were either mock-irradiated or exposed to IR (6 Gy). Forty-eight hours post-IR, cells were lysed with a modified lysis buffer (50 mM Tris-Cl pH 7.5, 0.15 M NaCl, 0.1% NP-40, 1.0% Triton X-100, 1 mM EDTA pH8.0, 1 mM EGTA pH8.0, 10% Glycerol, 2.5 mM MgCl2, 1 mM DTT, 0.1 mM ATP, and 1× Halt Protease Inhibitor) and incubated on ice for 1 hour. Cell lysates were separated from cell debris by centrifugation at 12,000 rpm at 4° C. Protein concentration was measured by BCA kit. Anti-FLAG monoclonal antibody was added to the cell lysate at a 1:500 dilution, and incubated overnight at 4° C. Protein G sepharose beads were added to the lysates and incubated for at least 2 hours at 4° C. Beads containing the antibody-RIG-I complexes were washed five times in wash buffer (50 mM Tris-Cl pH 7.5, 0.15 M NaCl, 1 mM MgCl2, 0.05% NP-40, 1 mM DTT) and proteins were eluted from the beads using a soft elution buffer (0.5% SDS, 0.1% Tween-20, 50 mM Tris pH 8.0) for 10 minutes at room temperature with vortexing every 2-3 minutes. Proteinase K was added to the eluates and incubated at 50° C. for 45 minutes. Trizol reagent was then added to the solution, and RNA bound to RIG-I was purified following manufacturer's protocol. RNA quality was analyzed using an Agilent Bioanalyzer 2100 with Pico Series II cartridges. RNA yield was measured using the Qubit RNA Broad Range kit. For qRT-PCR validation experiments of RIG-I pulled down RNA, UV cross-linking (2 doses at 150 mJ/cm^2) was performed on HEK293 and HCT116 overexpressing RIG-I prior to cell lysis. The same protocol for pulldown and RNA purification experiments was performed as described above.

With U2: snRNA, SEQ ID NO:21 the “levels in RIG-I pulldown after IR” value (HEK293 overexpressing K858A-K861A RNA binding deficient mutant RIG-I) was “did not detect increased levels”.

B1: M5: rbRNA, RIG-I agonist, 81 nucleotides, SEQ ID NO:26 (nucleic acid)
chain: GACGAAGACCACAAAACCAGATAAAAAATTATTTTTTATCTGGTTTTGTGGTCTTCGTCTATAGTGAGTCGTATTAATTTC
modifications: listed as DNA, chemistry not given here
For B1, the “binding to K858A-K861A RNA binding deficient mutant RIG-I” value (CLIP-PCR) was “did not bind”.
